# Laboratory results taken from ChEMBL document CHEMBL3526037, “Evaluation of the relationship between sex, polymorphisms in CYP2C8 and CYP2C9, and pharmacokinetics of angiotensin receptor blockers” (Drug Metab Dispos, 2013).
# What was measured:
# [1] = AUC in human plasma expressing CYP2C8*4 allele carrier polymorphism at 50 mg by LC/MS/MS analysis; assay type: ADME, organism-based
# [2] = Tmax in human plasma expressing CYP2C8*3 allele carrier polymorphism at 50 mg by LC/MS/MS analysis; assay type: ADME, organism-based
# [3] = Half life in human plasma expressing CYP2C9*2 allele carrier polymorphism at 50 mg by LC/MS/MS analysis
# [4] = Cmax in human plasma expressing CYP2C8*4 allele carrier polymorphism at 50 mg by LC/MS/MS analysis; assay type: ADME, organism-based; set-up: dose 50 mg
# [5] = Half life in human plasma expressing CYP2C8*1/*1 polymorphism at 50 mg by LC/MS/MS analysis
# [6] = Clearance in men plasma at 50 mg by LC/MS/MS analysis; assay type: ADME, organism-based; conditions: male, human
# [7] = Cmax in human plasma expressing CYP2C9*1/*1 polymorphism at 50 mg by LC/MS/MS analysis; assay type: ADME, organism-based; set-up: dose 50 mg
# [8] = Cmax in men plasma at 50 mg by LC/MS/MS analysis; assay type: ADME, organism-based; set-up: dose 50 mg; conditions: male, human
# [9] = Clearance in human plasma expressing CYP2C9*1/*1 polymorphism at 50 mg by LC/MS/MS analysis; assay type: ADME, organism-based
# [10] = Half life in human plasma expressing CYP2C9*1/*1 polymorphism at 50 mg by LC/MS/MS analysis
# [11] = Half life in women plasma at 50 mg by LC/MS/MS analysis; conditions: female, human
# [12] = Tmax in men plasma at 50 mg by LC/MS/MS analysis; assay type: ADME, organism-based; conditions: male, human
# [13] = Tmax in women plasma at 50 mg by LC/MS/MS analysis; assay type: ADME, organism-based; conditions: female, human
# [14] = AUC in human plasma expressing CYP2C9*2 allele carrier polymorphism at 50 mg by LC/MS/MS analysis; assay type: ADME, organism-based
# [15] = Tmax in human plasma expressing CYP2C9*3 allele carrier polymorphism at 50 mg by LC/MS/MS analysis; assay type: ADME, organism-based
# [16] = Clearance in human plasma expressing CYP2C8*4 allele carrier polymorphism at 50 mg by LC/MS/MS analysis; assay type: ADME, organism-based
# [17] = AUC in men plasma at 50 mg by LC/MS/MS analysis; assay type: ADME, organism-based; conditions: male, human
# [18] = Clearance in human plasma expressing CYP2C9*2 allele carrier polymorphism at 50 mg by LC/MS/MS analysis; assay type: ADME, organism-based
# [19] = Tmax in human plasma expressing CYP2C8*4 allele carrier polymorphism at 50 mg by LC/MS/MS analysis; assay type: ADME, organism-based
# [20] = Clearance in human plasma expressing CYP2C8*1/*1 polymorphism at 50 mg by LC/MS/MS analysis; assay type: ADME, organism-based
# [21] = Tmax in human plasma expressing CYP2C9*1/*1 polymorphism at 50 mg by LC/MS/MS analysis; assay type: ADME, organism-based
# [22] = Cmax in human plasma expressing CYP2C8*3 allele carrier polymorphism at 50 mg by LC/MS/MS analysis; assay type: ADME, organism-based; set-up: dose 50 mg
# [23] = Tmax in human plasma expressing CYP2C9*2 allele carrier polymorphism at 50 mg by LC/MS/MS analysis; assay type: ADME, organism-based
# [24] = Clearance in human plasma expressing CYP2C9*3 allele carrier polymorphism at 50 mg by LC/MS/MS analysis; assay type: ADME, organism-based
# [25] = Tmax in human plasma expressing CYP2C8*1/*1 polymorphism at 50 mg by LC/MS/MS analysis; assay type: ADME, organism-based
# [26] = Clearance in women plasma at 50 mg by LC/MS/MS analysis; assay type: ADME, organism-based; conditions: female, human
# [27] = Clearance in human plasma expressing CYP2C8*3 allele carrier polymorphism at 50 mg by LC/MS/MS analysis; assay type: ADME, organism-based
# [28] = AUC in human plasma expressing CYP2C9*3 allele carrier polymorphism at 50 mg by LC/MS/MS analysis; assay type: ADME, organism-based
# [29] = Half life in human plasma expressing CYP2C9*3 allele carrier polymorphism at 50 mg by LC/MS/MS analysis
# [30] = AUC in women plasma at 50 mg by LC/MS/MS analysis; assay type: ADME, organism-based; conditions: female, human
# [31] = AUC in human plasma expressing CYP2C8*3 allele carrier polymorphism at 50 mg by LC/MS/MS analysis; assay type: ADME, organism-based
# [32] = Half life in men plasma at 50 mg by LC/MS/MS analysis; conditions: male, human
# [33] = AUC in human plasma expressing CYP2C8*1/*1 polymorphism at 50 mg by LC/MS/MS analysis; assay type: ADME, organism-based
# [34] = Half life in human plasma expressing CYP2C8*3 allele carrier polymorphism at 50 mg by LC/MS/MS analysis
# [35] = Half life in human plasma expressing CYP2C8*4 allele carrier polymorphism at 50 mg by LC/MS/MS analysis
# [36] = AUC in human plasma expressing CYP2C9*1/*1 polymorphism at 50 mg by LC/MS/MS analysis; assay type: ADME, organism-based
# [37] = Cmax in human plasma expressing CYP2C8*1/*1 polymorphism at 50 mg by LC/MS/MS analysis; assay type: ADME, organism-based; set-up: dose 50 mg
smiles,measurement,setting,value
CCCCc1nc(Cl)c(CO)n1Cc1ccc(-c2ccccc2-c2nn[nH]n2)cc1 [LOSARTAN],AUC,[1],494 ng·h/mL
same,Tmax,[2],1 h
same,half-life,[3],2.4 h
same,Cmax,[4],345 ng/mL
same,half-life,[5],2.3 h
same,clearance,[6],27.7 mL/min/kg
same,Cmax,[7],258 ng/mL
same,Cmax,[8],234 ng/mL
same,clearance,[9],30 mL/min/kg
same,half-life,[10],2.3 h
same,half-life,[11],2.4 h
same,Tmax,[12],1.2 h
same,Tmax,[13],1.2 h
same,AUC,[14],366 ng·h/mL
same,Tmax,[15],1 h
same,clearance,[16],26.7 mL/min/kg
same,AUC,[17],455 ng·h/mL
same,clearance,[18],31.7 mL/min/kg
same,Tmax,[19],0.9 h
same,clearance,[20],28.3 mL/min/kg
same,Tmax,[21],1.3 h
same,Cmax,[22],231 ng/mL
same,Tmax,[23],1.1 h
same,clearance,[24],21.7 mL/min/kg
same,Tmax,[25],1.3 h
same,clearance,[26],30.3 mL/min/kg
same,clearance,[27],31.7 mL/min/kg
same,AUC,[28],637 ng·h/mL
same,half-life,[29],3.1 h
same,AUC,[30],519 ng·h/mL
same,AUC,[31],413 ng·h/mL
same,half-life,[32],2.5 h
same,AUC,[33],504 ng·h/mL
same,half-life,[34],2.5 h
same,half-life,[35],2.7 h
same,AUC,[36],473 ng·h/mL
same,Cmax,[37],263 ng/mL
